Reference: ChEMBL document CHEMBL4190183 (Medchemcomm, 2016)
≈ marks a conversion by molar mass, not a printed value. Calls of active or inactive are those of the source. The rule behind the calls is not given here.

Key:
HepG2 [1] = assay: Antiproliferative activity against human HepG2 cells assessed as decrease in PCNA expression level at 10 to 20 uM after 48 hrs by Western blot analysis; format: functional, cell-based
HepG2 [2] = assay: Induction of DNA damage in human HepG2 cells assessed as increase in gamma-H2AX expression levels at 10 to 20 uM after 48 hrs by Western blot analysis; format: functional, cell-based
HepG2 [3] = assay: Induction of apoptosis in human HepG2 cells after 48 hrs by Annexin-V/PI staining based flow cytometry; format: functional, cell-based
HepG2 [4] = assay: Antimetastatic activity against human HepG2 cells assessed as wound healing at 10 uM after 12 hrs by microscopic method (reference value: 21%); format: functional
A549 = assay: Cytotoxicity against human A549 cells assessed as cell death at 10 uM after 48 hrs by MTT assay relative to control; format: functional
DNA ligase 1 [5] = target: T1, DNA ligase 1 (Homo sapiens, UniProt P18858); assay: Binding affinity to human N-terminal His-tagged DNA ligase 1 DBD expressed in Escherichia coli BL21(DE3)RP cells at 1.25 to 5 uM by CD spectroscopic method
T1 sequence (P18858 whole entry): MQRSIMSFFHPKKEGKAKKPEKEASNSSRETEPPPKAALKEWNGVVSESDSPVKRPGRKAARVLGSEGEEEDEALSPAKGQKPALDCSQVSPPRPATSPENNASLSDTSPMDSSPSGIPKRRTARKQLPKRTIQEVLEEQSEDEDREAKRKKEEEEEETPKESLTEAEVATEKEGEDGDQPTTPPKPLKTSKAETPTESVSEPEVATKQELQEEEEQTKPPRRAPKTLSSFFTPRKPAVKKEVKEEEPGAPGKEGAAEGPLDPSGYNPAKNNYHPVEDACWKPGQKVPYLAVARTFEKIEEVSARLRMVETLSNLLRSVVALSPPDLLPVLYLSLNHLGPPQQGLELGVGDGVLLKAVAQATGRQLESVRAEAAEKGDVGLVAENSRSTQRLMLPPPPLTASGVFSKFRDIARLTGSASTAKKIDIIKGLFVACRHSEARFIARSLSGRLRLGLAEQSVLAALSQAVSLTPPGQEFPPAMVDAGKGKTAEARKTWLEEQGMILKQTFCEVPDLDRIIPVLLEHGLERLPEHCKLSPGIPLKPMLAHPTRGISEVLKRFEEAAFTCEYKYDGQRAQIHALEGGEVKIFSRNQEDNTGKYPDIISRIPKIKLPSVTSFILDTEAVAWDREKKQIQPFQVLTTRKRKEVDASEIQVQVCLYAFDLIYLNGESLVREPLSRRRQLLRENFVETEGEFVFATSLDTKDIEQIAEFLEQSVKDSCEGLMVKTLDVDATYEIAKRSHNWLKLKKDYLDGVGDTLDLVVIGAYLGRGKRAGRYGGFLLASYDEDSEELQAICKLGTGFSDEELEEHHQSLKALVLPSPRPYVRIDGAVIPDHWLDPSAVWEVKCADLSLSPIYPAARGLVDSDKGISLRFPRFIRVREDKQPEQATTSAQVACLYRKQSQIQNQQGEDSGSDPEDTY

HepG2 [6] = assay: Cytotoxicity against human HepG2 cells assessed as decrease in cell viability after 48 hrs by MTT assay; format: functional, cell-based
HepG2 [7] = assay: Cell cycle arrest in human HepG2 cells assessed as accumulation at G0/G1 phase at 10 uM after 24 hrs by propidium iodide staining based flow cytometry (reference value: 56.8 +/- 1.16%); format: functional
Mesocricetus auratus [8] = organism: Mesocricetus auratus; assay: Intrinsic clearance in hamster liver microsomes at 1 uM by LC-MS/MS analysis; settings: golden Syrian hamster
DNA ligase 1 [9] = target: T1, DNA ligase 1; assay: Binding affinity to human full length N-terminal His-tagged DNA ligase 1 expressed in Escherichia coli BL21(DE3)RP cells at 10 uM by fluorescence spectroscopic analysis
DNA ligase 1 [10] = target: T1, DNA ligase 1; assay: Inhibition of human DNA ligase 1 expressed in Escherichia coli BL21(DE3)RP cells assessed as reduction in fluorescently labelled ds nicked DNA substrate ligation at 100 uM after 30 mins by urea gel based imaging method relative to control
Mesocricetus auratus [11] = organism: Mesocricetus auratus; assay: Metabolic stability in hamster liver microsomes assessed as parent compound remaining at 1 uM after 60 mins in presence of NADPH by LC-MS/MS analysis; settings: golden Syrian hamster
DNA [12] = assay: Induction of linearized Escherichia coli pUC18 DNA intercalation up to 600 uM after 30 mins by agarose gel electrophoresis method; format: nucleic-acid assay
DNA ligase 1 [13] = target: T1, DNA ligase 1; assay: Binding affinity to human full length N-terminal His-tagged DNA ligase 1 expressed in Escherichia coli BL21(DE3)RP cells at 1.25 to 5 uM by CD spectroscopic method
DNA ligase 1 [14] = target: T1, DNA ligase 1; assay: Residual activity of human DNA ligase 1 expressed in Escherichia coli BL21(DE3)RP cells assessed as DNA ligation at 100 uM using fluorescently labelled ds nicked DNA as substrate after 30 mins by urea gel based imaging method relative to control
[15] = Retention time of the compound by LC-MS/MS analysis; format: physicochemical
HepG2 [16] = assay: Induction of apoptosis in human HepG2 cells assessed as increase in p53 expression levels at 10 to 20 uM after 48 hrs by Western blot analysis; format: functional, cell-based
HepG2 [17] = assay: Synergistic cytotoxicity against human HepG2 cells assessed as induction of cell death at 5 uM after 48 hrs in presence of 0.625 uM doxorubicin by MTT assay; format: functional, cell-based
HepG2 [18] = assay: Induction of cell death in human HepG2 cells at 5 uM after 48 hrs by MTT assay; format: functional, cell-based
DNA ligase 1 [19] = target: T1, DNA ligase 1; assay: Inhibition of human DNA ligase 1 expressed in Escherichia coli BL21(DE3)RP cells assessed as reduction in nick sealing activity using fluorescently labelled ds nicked DNA as substrate after 30 mins by urea gel based imaging method
DNA ligase 1 [20] = target: T1, DNA ligase 1; assay: Binding affinity to human N-terminal His-tagged DNA ligase 1 DBD expressed in Escherichia coli BL21(DE3)RP cells at 10 uM by fluorescence spectroscopic analysis
HCT-116 = assay: Cytotoxicity against human HCT116 cells assessed as cell death at 10 uM after 48 hrs by MTT assay relative to control; format: functional
DNA [21] = assay: Inhibition of EtBr binding to Escherichia coli pUC18 DNA up to 400 uM after 30 mins by fluorescence spectroscopic analysis; format: nucleic-acid assay
HepG2 [22] = assay: Antimetastatic activity against human HepG2 cells assessed as wound healing at 20 uM after 18 hrs by microscopic method (reference value: 32%); format: functional
HepG2 [23] = assay: Antimetastatic activity against human HepG2 cells assessed as wound healing at 20 uM after 12 hrs by microscopic method (reference value: 21%); format: functional
HepG2 [24] = assay: Cell cycle arrest in human HepG2 cells assessed as accumulation at G0/G1 phase at 10 uM after 12 hrs by propidium iodide staining based flow cytometry (reference value: 42.7 +/- 1.5%); format: functional
[25] = Stability of the compound in simulated gastric fluid at 5 uM at pH 1.2 measured up to 60 mins by LC-MS/MS analysis; format: ADME; settings: simulated gi fluid, pH 1.2, 1 h
HepG2 [26] = assay: Cell cycle arrest in human HepG2 cells assessed as accumulation at G0/G1 phase at 20 uM after 12 hrs by propidium iodide staining based flow cytometry (reference value: 42.7 +/- 1.5%); format: functional
[27] = Protein binding in hamster plasma at 10 uM at pH 7.4 incubated for 30 mins measured after 10 hrs by LC-MS/MS based equilibrium dialysis method; format: ADME, cell-free, Cricetulus griseus; settings: chinese hamster, read-out: PPB
DNA ligase 1 [28] = target: T1, DNA ligase 1; assay: Binding affinity to human full length N-terminal His-tagged DNA ligase 1 expressed in Escherichia coli BL21(DE3)RP cells assessed as destabilization of enzyme-nicked oligo DNA complex after 2 hrs by electrophoretic mobility shift assay
MDA-MB-231 = assay: Cytotoxicity against human MDA-MB-231 cells assessed as cell death at 10 uM after 48 hrs by MTT assay relative to control; format: functional
HepG2 [29] = assay: Antimetastatic activity against human HepG2 cells assessed as wound healing at 10 uM after 18 hrs by microscopic method (reference value: 32%); format: functional
HEK293 = assay: Cytotoxicity against HEK293 cells assessed as cell death at 10 uM after 48 hrs by MTT assay relative to control; format: cell-based; settings: human, hek293, 48 h
DLD-1 = assay: Cytotoxicity against human DLD1 cells assessed as cell death at 10 uM after 48 hrs by MTT assay relative to control; format: functional
HepG2 [30] = assay: Anticlonogenic activity against human HepG2 cells at >= 10 uM incubated for 48 hrs measured after 10 days by crystal violet staining based microscopy; format: functional, cell-based
[31] = Stability of the compound in simulated intestinal fluid at 5 uM at pH 6.8 measured up to 120 mins by LC-MS/MS analysis; format: ADME; settings: simulated gi fluid, pH 6.8, 2 h
Mesocricetus auratus [32] = organism: Mesocricetus auratus; assay: Half life in hamster liver microsomes at 1 uM by LC-MS/MS analysis; settings: golden Syrian hamster
HepG2 [33] = assay: Cytotoxicity against human HepG2 cells assessed as cell death at 10 uM after 48 hrs by MTT assay relative to control; format: functional
HepG2 [34] = assay: Cell cycle arrest in human HepG2 cells assessed as accumulation at G0/G1 phase at 20 uM after 24 hrs by propidium iodide staining based flow cytometry (reference value: 56.8 +/- 1.16%); format: functional
[35] = Aqueous solubility of the compound in triple distilled water at 1 to 1000 uM after 2 hrs by nephelometric method; format: physicochemical

CCOC(=O)C1=C(C)NC(=O)NC1c1cc(/C=N/NC(=O)Nc2cccc(OC)c2)c(O)c(C(C)(C)C)c1 (configuration not stated)
Activity (HepG2 [1]): Active | Activity (HepG2 [2]): Active | Activity (HepG2 [3]): Dose-dependent effect | Activity (HepG2 [4]): 11.2% | Activity (A549): 18.1% | Activity (DNA ligase 1 [5]): Active | Activity (HepG2 [6]): Dose-dependent effect | IC50 (HepG2 [6]; HepG2, 48 h): 10.6 µM | Activity (HepG2 [7]): 68.1% | CLH (Mesocricetus auratus [8]): 33.29 µL/min/mg | Activity (DNA ligase 1 [9]): Active | inhibition (DNA ligase 1 [10]): 82.7% | remaining at 1 h, 1 µM (Mesocricetus auratus [11]): 12.9% | Activity (DNA [12]): inactive | Activity (DNA ligase 1 [13]): Active | ligation (DNA ligase 1 [14]): 17.4% | Retention_time [15]: 2.98 min | Activity (HepG2 [16]): Active | Activity (HepG2 [17]): Active | Activity (HepG2 [18]): Active | IC50 (DNA ligase 1 [19]): 12.4 µM | inhibition (DNA ligase 1 [19]): Dose-dependent effect | Activity (DNA ligase 1 [20]): Active | Activity (HCT-116): 18.2% | inhibition (DNA [21]): inactive | Activity (HepG2 [22]): 5.5% | Activity (HepG2 [23]): 7.5% | Activity (HepG2 [24]): 59.1% | Stability [25]: Stable | Activity (HepG2 [26]): 64% | fraction unbound at 10 h, 10 µM [27]: 0.0098 | Activity (DNA ligase 1 [28]): Dose-dependent effect | Activity (MDA-MB-231): 28.4% | Activity (HepG2 [29]): 16.4% | Activity (HEK293): 11.7% | Activity (DLD-1): 29.4% | Activity (HepG2 [30]): Active | Stability [31]: Stable | half-life at 1 µM (Mesocricetus auratus [32]): 20.8 min | Activity (HepG2 [33]): 52.2% | Activity (HepG2 [34]): 84.8% | solubility kinetic at 2 h [35]: 30 µM (≈ 15.7 µg/mL)
